Read-outs that look alike come from different tables or passages of the source.
How the values were obtained:
hGLP1R = biological target: T1, hGLP1R (Homo sapiens, UniProt P43220); experiment: hGLP1R CreLuc assay in 0.5% and 100% plasma (HEK-293 CRE-luciferase reporter cells); type: cell-based; details: HEK-293 reporter cells
T1 construct: expressed in transfected cells; host or cells: HEK-293 CRE-luciferase reporter cells

hGIPR = biological target: T2, hGIPR (Homo sapiens, UniProt P48546); experiment: hGIPR CreLuc assay in 0.5% and 100% plasma (CHO CRE-luciferase reporter cells); type: cell-based; details: 0.5% human plasma, read-out: hGIPR 0.5% hP
T2 construct: expressed in transfected cells; host or cells: CHO CRE-luciferase reporter cells
T2 sequence (P48546 22-466): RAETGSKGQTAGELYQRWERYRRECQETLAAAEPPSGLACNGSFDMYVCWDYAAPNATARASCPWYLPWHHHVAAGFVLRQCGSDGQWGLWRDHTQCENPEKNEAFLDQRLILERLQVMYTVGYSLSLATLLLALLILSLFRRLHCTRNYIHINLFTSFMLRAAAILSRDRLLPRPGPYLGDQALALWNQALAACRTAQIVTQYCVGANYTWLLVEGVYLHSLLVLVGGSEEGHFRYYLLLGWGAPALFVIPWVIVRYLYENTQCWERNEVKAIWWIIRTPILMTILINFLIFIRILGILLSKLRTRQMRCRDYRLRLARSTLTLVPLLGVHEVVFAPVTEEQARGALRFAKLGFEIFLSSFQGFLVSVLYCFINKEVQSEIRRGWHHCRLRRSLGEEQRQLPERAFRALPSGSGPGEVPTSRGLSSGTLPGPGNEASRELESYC

hNPY2R = biological target: T3, hNPY2R (Homo sapiens, UniProt P49146); experiment: hNPY2R CreLuc assay in 0.5% and 100% plasma (HEK-293 CRE-luciferase reporter cells); type: cell-based; details: HEK-293 reporter cells
T3 construct: expressed in transfected cells; host or cells: HEK-293 CRE-luciferase reporter cells
T3 sequence (P49146 1-381): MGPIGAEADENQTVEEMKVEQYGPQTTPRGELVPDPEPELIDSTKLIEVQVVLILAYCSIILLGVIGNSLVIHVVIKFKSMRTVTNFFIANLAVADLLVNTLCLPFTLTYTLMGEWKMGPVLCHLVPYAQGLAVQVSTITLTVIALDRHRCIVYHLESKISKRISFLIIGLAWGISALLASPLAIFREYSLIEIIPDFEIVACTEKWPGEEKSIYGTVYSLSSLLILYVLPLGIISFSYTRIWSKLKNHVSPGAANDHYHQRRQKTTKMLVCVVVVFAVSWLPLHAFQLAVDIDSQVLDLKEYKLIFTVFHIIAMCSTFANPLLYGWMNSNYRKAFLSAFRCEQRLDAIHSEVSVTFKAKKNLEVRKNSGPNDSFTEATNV

[1] = Solubility in 0.1 M phosphate buffer at pH 7; type: physicochemical; details: 0.1 M phosphate buffer at pH 7, 10 mg/mL final peptide concentration, shaking 2 hours at room temperature, peptides as TFA-salts; measured sample pH 6.5-7.0
[2] = 0.5% human plasma, read-out: hGLP1R 0.5% hP
[3] = 100% human plasma, read-out: hNPY2R 100% hP

T1 sequence (P43220 24-463): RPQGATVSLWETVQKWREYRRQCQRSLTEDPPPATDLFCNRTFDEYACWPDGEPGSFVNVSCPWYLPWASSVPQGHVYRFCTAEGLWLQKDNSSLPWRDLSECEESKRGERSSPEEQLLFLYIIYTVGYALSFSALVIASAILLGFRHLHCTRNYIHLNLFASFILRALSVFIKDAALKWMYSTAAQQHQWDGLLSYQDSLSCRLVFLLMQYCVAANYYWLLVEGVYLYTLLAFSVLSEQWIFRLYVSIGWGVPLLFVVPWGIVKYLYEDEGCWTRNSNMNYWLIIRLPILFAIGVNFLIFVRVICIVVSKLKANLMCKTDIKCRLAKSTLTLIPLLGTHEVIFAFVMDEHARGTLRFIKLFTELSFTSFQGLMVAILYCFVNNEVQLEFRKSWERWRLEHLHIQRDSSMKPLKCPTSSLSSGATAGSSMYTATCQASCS

| SMILES | EC50 (hGLP1R; [2]) [nM] | EC50 (hGIPR) [nM] | EC50 (hNPY2R; [3]) [nM] | solubility at 2 h [1] [µg/mL] | EC50 (hGLP1R; 100% human plasma, read-out: hGLP1R 100% hP) [nM] | EC50 (hNPY2R; 0.5% human plasma, read-out: hNPY2R 0.5% hP) [nM] |
| --- | --- | --- | --- | --- | --- | --- |
| CC[C@H](C)[C@H](NC(=O)[C@H](CC(C)C)NC(=O)[C@H](Cc1c[nH]cn1)NC(=O)[C@H](CCCNC(=N)N)NC(=O)[C@@H](NC(=O)[C@H](Cc1ccccc1)NC(=O)[C@H](C)NC(=O)C(C)(C)NC(=O)[C@H](CCC(N)=O)NC(=O)[C@H](C)NC(=O)[C@H](CCC(N)=O)NC(=O)[C@H](CCCCN)NC(=O)[C@H](CCC(=O)O)NC(=O)[C@H](CC(C)C)NC(=O)C(C)(C)NC(=O)[C@@H](NC(=O)[C@H](CO)NC(=O)[C@H](Cc1ccc(O)cc1)NC(=O)[C@H](CC(=O)O)NC(=O)[C@H](CO)NC(=O)[C@@H](NC(=O)[C@H](Cc1ccccc1)NC(=O)[C@@H](NC(=O)CNC(=O)[C@H](CCC(=O)O)NC(=O)C(C)(C)NC(=O)[C@@H](N)Cc1ccc(O)cc1)[C@@H](C)O)[C@@H](C)O)[C@@H](C)CC)C(C)C)C(=O)N[C@@H](CC(N)=O)C(=O)N[C@@H](CCCCNC(=O)[C@@H](N)CCCNC(=O)CC[C@H](NC(=O)CC[C@H](NC(=O)CC[C@H](NC(=O)CC[C@H](NC(=O)CC[C@H](NC(=O)CC[C@H](NC(=O)CCCCCCCCCCCCCCCCC(=O)O)C(=O)O)C(=O)O)C(=O)O)C(=O)O)C(=O)O)C(=O)O)C(=O)NC(C)(C)C(=O)N[C@H](C(=O)N[C@@H](CCCNC(=N)N)C(=O)N[C@@H](CCC(N)=O)C(=O)N[C@@H](CCCNC(=N)N)C(=O)N[C@@H](Cc1ccc(O)cc1)C(N)=O)[C@@H](C)O [Compound 87, Y-Aib-E-G-T-F-T-S-D-Y-S-I-Aib-L-E-K-Q-A-Q-Aib-A-F-V-R-H-L-I-N-K(1,3)-Aib-T-R-Q-R-Y-NH2.C18DA-gGlu-gGlu-gGlu-gGlu-gGlu-gGlu-dtOrn(1,2)] | 1.7 | 0.2 | 57.9 | 4900 |  |  |
| CC[C@H](C)[C@H](NC(=O)[C@H](CC(C)C)NC(=O)[C@H](Cc1c[nH]cn1)NC(=O)[C@H](CCCNC(=N)N)NC(=O)[C@H](CC(C)C)NC(=O)[C@H](Cc1ccccc1)NC(=O)[C@H](C)NC(=O)C(C)(C)NC(=O)[C@H](CCC(N)=O)NC(=O)[C@H](C)NC(=O)[C@H](CCC(N)=O)NC(=O)[C@H](CCCCN)NC(=O)[C@H](CCC(=O)O)NC(=O)[C@H](CC(C)C)NC(=O)C(C)(C)NC(=O)[C@@H](NC(=O)[C@H](CO)NC(=O)[C@H](Cc1ccc(O)cc1)NC(=O)[C@H](CC(=O)O)NC(=O)[C@H](CO)NC(=O)[C@@H](NC(=O)[C@H](Cc1ccccc1)NC(=O)[C@@H](NC(=O)CNC(=O)[C@H](CCC(=O)O)NC(=O)C(C)(C)NC(=O)[C@@H](N)Cc1ccc(O)cc1)[C@@H](C)O)[C@@H](C)O)[C@@H](C)CC)C(=O)N[C@@H](CC(N)=O)C(=O)N[C@@H](CCCCNC(=O)[C@@H](N)CCCCNC(=O)CC[C@H](NC(=O)CC[C@H](NC(=O)CC[C@H](NC(=O)CC[C@H](NC(=O)CC[C@H](NC(=O)CC[C@H](NC(=O)CCCCCCCCCCCCCCCCC(=O)O)C(=O)O)C(=O)O)C(=O)O)C(=O)O)C(=O)O)C(=O)O)C(=O)NC(C)(C)C(=O)N[C@H](C(=O)N[C@@H](CCCNC(=N)N)C(=O)N[C@@H](CCC(N)=O)C(=O)N[C@@H](CCCNC(=N)N)C(=O)N[C@@H](Cc1ccc(O)cc1)C(N)=O)[C@@H](C)O [Compound 37, Y-Aib-E-G-T-F-T-S-D-Y-S-I-Aib-L-E-K-Q-A-Q-Aib-A-F-L-R-H-L-I-N-K(1,3)-Aib-T-R-Q-R-Y-NH2.C18DA-gGlu-gGlu-gGlu-gGlu-gGlu-gGlu-eLys(1,2)] | 5.8 |  | 41.3 | 9000 |  |  |
| CC[C@H](C)[C@H](NC(=O)[C@H](CC(C)C)NC(=O)[C@H](Cc1c[nH]cn1)NC(=O)[C@H](CCCNC(=N)N)NC(=O)[C@@H](NC(=O)[C@H](Cc1ccccc1)NC(=O)[C@H](C)NC(=O)C(C)(C)NC(=O)[C@H](CCC(N)=O)NC(=O)[C@H](C)NC(=O)[C@H](CCC(N)=O)NC(=O)[C@H](CCCCN)NC(=O)[C@H](CCC(=O)O)NC(=O)[C@H](CC(C)C)NC(=O)C(C)(C)NC(=O)[C@@H](NC(=O)[C@H](CO)NC(=O)[C@H](Cc1ccc(O)cc1)NC(=O)[C@H](CC(=O)O)NC(=O)[C@H](CO)NC(=O)[C@@H](NC(=O)[C@H](Cc1ccccc1)NC(=O)[C@H](C)NC(=O)CNC(=O)[C@H](CCC(=O)O)NC(=O)C(C)(C)NC(=O)[C@@H](N)Cc1ccc(O)cc1)[C@@H](C)O)[C@@H](C)CC)C(C)C)C(=O)N[C@@H](CC(N)=O)C(=O)N[C@@H](CCCCNC(=O)[C@@H](N)CCCCNC(=O)CC[C@H](NC(=O)CC[C@H](NC(=O)CC[C@H](NC(=O)CC[C@H](NC(=O)CC[C@H](NC(=O)CC[C@H](NC(=O)CCCCCCCCCCCCCCCCC(=O)O)C(=O)O)C(=O)O)C(=O)O)C(=O)O)C(=O)O)C(=O)O)C(=O)NC(C)(C)C(=O)N[C@H](C(=O)N[C@@H](CCCNC(=N)N)C(=O)N[C@@H](CCC(N)=O)C(=O)N[C@@H](CCCNC(=N)N)C(=O)N[C@@H](Cc1ccc(O)cc1)C(N)=O)[C@@H](C)O [Compound 85, Y-Aib-E-G-A-F-T-S-D-Y-S-I-Aib-L-E-K-Q-A-Q-Aib-A-F-V-R-H-L-I-N-K(1,3)-Aib-T-R-Q-R-Y-NH2.C18DA-gGlu-gGlu-gGlu-gGlu-gGlu-gGlu-eLys(1,2)] |  |  | 16.2 | 9400 | 14.5 |  |
| CC[C@H](C)[C@H](NC(=O)[C@H](CC(C)C)NC(=O)[C@H](Cc1c[nH]cn1)NC(=O)[C@H](CCCNC(=N)N)NC(=O)[C@@H](NC(=O)[C@H](Cc1ccccc1)NC(=O)[C@H](C)NC(=O)C(C)(C)NC(=O)[C@H](CCC(=O)O)NC(=O)[C@H](C)NC(=O)[C@H](CCC(N)=O)NC(=O)[C@H](CCCCN)NC(=O)[C@H](CCC(=O)O)NC(=O)[C@H](CC(C)C)NC(=O)C(C)(C)NC(=O)[C@@H](NC(=O)[C@H](CO)NC(=O)[C@H](Cc1ccc(O)cc1)NC(=O)[C@H](CC(=O)O)NC(=O)[C@H](CO)NC(=O)[C@@H](NC(=O)[C@H](Cc1ccccc1)NC(=O)[C@@H](NC(=O)CNC(=O)[C@H](CCC(=O)O)NC(=O)C(C)(C)NC(=O)[C@@H](N)Cc1ccc(O)cc1)[C@@H](C)O)[C@@H](C)O)[C@@H](C)CC)C(C)C)C(=O)N[C@@H](CC(N)=O)C(=O)N[C@@H](CCCCNC(=O)[C@@H](N)CCCCNC(=O)CC[C@H](NC(=O)CC[C@H](NC(=O)CC[C@H](NC(=O)CC[C@H](NC(=O)CC[C@H](NC(=O)CC[C@H](NC(=O)CCCCCCCCCCCCCCCCCCC(=O)O)C(=O)O)C(=O)O)C(=O)O)C(=O)O)C(=O)O)C(=O)O)C(=O)NC(C)(C)C(=O)N[C@H](C(=O)N[C@@H](CCCNC(=N)N)C(=O)N[C@@H](CCC(N)=O)C(=O)N[C@@H](CCCNC(=N)N)C(=O)N[C@@H](Cc1ccc(O)cc1)C(N)=O)[C@@H](C)O [Compound 104, Y-Aib-E-G-T-F-T-S-D-Y-S-I-Aib-L-E-K-Q-A-E-Aib-A-F-V-R-H-L-I-N-K(1,3)-Aib-T-R-Q-R-Y-NH2.C20DA-gGlu-gGlu-gGlu-gGlu-gGlu-gGlu-eLys(1,2)] | 2 |  |  | 9400 |  | 17.5 |

Source: patent US20250382344A1, “Soluble GLP1/GIP/NPY2 Receptor Triple Agonists” (Boehringer Ingelheim International GmH, priority 2024, published 2025)
